Source: patent US10183000B1, “2, 4-dinitroanilino-benzoic acid: novel insulinotropic agent for the treatment of diabetes” (priority 2017, dated 2019)
“Also recorded” adds a separate entry of the source.

What was measured:
[1] = tested on: STZ-induced diabetic rats; assay: Mortality on daily oral administration for eight weeks; format: in vivo, Wistar rats; conditions: doses up to 100 mg/kg of body weight
Experimental: (§1) Diabetes Induction: Prior to induction of diabetes, animals were given a high-fat diet (40% fat content) for two weeks. Diabetes was induced by administrating intraperitoneally a single dose of freshly prepared solution of streptozotocin (45 mg/kg) (Wako, Richmond, USA) in a chilled 0.1 M citrate buffer, pH 4.5. The normal control rats were injected with citrate buffer alone. Fasting blood glucose levels (FBG) were measured after 48 hours, and one week of diabetes induction with a blood glucose analyzer (Accu-Chek®, Roche, Mannheim, Germany). Rats with FBG levels of ≥200 mg/dL were considered diabetic, and randomly divided into diabetic and a compound 1-treated (100 mg/kg) groups. […] This indicated the safety of doses up to 100 mg/kg of body weight.

[2] = tested on: STZ-induced diabetic rats; assay: Pancreatic insulin contents by acid-ethanol extraction and rat insulin ELISA; format: in vivo, Wistar rats; conditions: 100 mg/kg, 8 weeks, vs STZ-induced diabetic group
Experimental: (§2) Blood glucose levels and body weight of each group were monitored on weekly basis under fasting states. Blood samples were drawn from tail vein to measure the glucose levels by blood glucose analyzer. After 8 weeks of the experiments, rats under 8 hours of fasting states were anaesthetized by phenobarbital sodium (60 mg/kg), and blood samples were collected via cardiopuncture. Serum was stored at −80° C. until measurement of the insulin levels. A part of cryopreserved isolated pancreas was used for the measurement of pancreatic insulin contents. Briefly, pancreas were homogenized in an acid-ethanol solution (75% ethanol, 1.5% HCl, and 23.5% deionized water), and the mixture was kept for 4 hours at 4° C. to extract the insulin. Serum- and isolated pancreatic insulin contents were measured by rat insulin ELISA kit (Amersham Biosciences, N.J., USA).

[3] = tested on: STZ-induced diabetic rats; assay: Dose optimization of anti-diabetic effect in STZ-induced diabetic rats; format: in vivo, Wistar rats; conditions: 25, 50, and 100 mg/kg in STZ-induced diabetic rats
Experimental: as §1

[4] = tested on: pancreatic islet in diabetic Wistar rats; assay: Quantification of pancreatic islet area and beta-cell number; format: in vivo; conditions: 100 mg/kg, per pancreas section, n=5
Description: Procedure: The pancreatic islet area (μ2) and the beta-cell number were quantified from overlapped images of pancreas that was immunostained with insulin and DAPI in all islet sections using NIS-Elements image analysis software AR 3.0. The pancreatic islet area (μ2) and the beta-cell number per section were enumerated by using five sections per pancreas, and five rats from each group.

[5] = tested on: STZ-induced diabetic rats; assay: Fasting blood glucose in STZ-induced diabetic rats, eight weeks of treatment; format: in vivo, Wistar rats
Experimental: Animals: Eight weeks old Wistar rats (n=54; 24 males: 30 females) weighing 160-180 g were used in the study. During the eight weeks of the experiment, animals were kept in the animal house with a controlled temperature (25±2°C.), and 12 hours light/dark cycle. Water and standardized food access were provided at libitum.
Diabetes Induction: Prior to induction of diabetes, animals were given a high-fat diet (40% fat content) for two weeks. Diabetes was induced by administrating intraperitoneally a single dose of freshly prepared solution of streptozotocin (45 mg/kg) (Wako, Richmond, USA) in a chilled 0.1 M citrate buffer, pH 4.5. The normal control rats were injected with citrate buffer alone. Fasting blood glucose levels (FBG) were measured after 48 hours, and one week of diabetes induction with a blood glucose analyzer (Accu-Chek®, Roche, Mannheim, Germany). […]
Blood glucose levels and body weight of each group were monitored on weekly basis under fasting states. […] Serum- and isolated pancreatic insulin contents were measured by rat insulin ELISA kit (Amersham Biosciences, N.J., USA).
Statistical Analysis: All results are expressed as means ±SEM. The significance of differences between groups was determined by using one-way ANOVA, and multiple comparisons were performed by Tukey Alpha, post hoc analysis. […]

[6] = tested on: STZ-induced diabetic rats; assay: Serum insulin levels by rat insulin ELISA; format: in vivo, Wistar rats; conditions: 100 mg/kg, 8 weeks, vs STZ-induced diabetic group
Experimental: as §2

[7] = tested on: pancreatic islet in diabetic Wistar rats; assay: Islets histopathology (H&E) and insulin immunohistochemistry; format: in vivo; conditions: 100 mg/kg
Experimental: Procedure: Pancreata isolated from rats were fixed with 3.7% neutral buffered formalin and embedded in paraffin. The 5 μm thick sections (n=6/group) were stained with eosin and hematoxilin, and evaluated for islets histopathology, after performing deparaffinization and dehydration steps. For immunohistochemistry analysis, briefly the antigen was first retrieved by heating for 40 min at 90° C. in 5.0 mM citrate buffer, pH 4.5. Prior to primary antibody treatment, each section was then cooled at room temperature, and incubated with 1× rotti immunoblocking solution (Carl Roth, Karlsruhe, Germany). The sections were immunostained with mouse K36AC10 monoclonal anti-insulin antibody (1:2,000) (Sigma Aldrich, St. Louis, Mo., USA) for 1 hour in a dark humidified chamber at 37° C. The sections were then immunostained with Alexa Fluor 594 donkey anti-mouse IgM secondary antibody (1:200)(Jackson ImmunoResearch, Pa., USA) for 1 hour in a dark chamber at 37° C. for detention. Finally, beta cells nuclei were stained with DAPI (1:5,000) (Sigma Aldrich, St, Louis, Mo., USA). The stained sections were observed under Nikon 90i microscope, equipped with DXM-1200 digital camera (Nikon, Tokyo, Japan).

Structure (SMILES): O=C(O)c1ccccc1Nc1ccc([N+](=O)[O-])cc1[N+](=O)[O-] [Compound 1, 2,4-Dinitroanilino-benzoic acid]
- mortality [1]: without significant mortality
- pancreatic insulin contents [2]: increase in pancreatic insulin contents; also recorded: significantly restored
- anti-diabetic effect, dose optimization [3]: dose dependent anti-diabetic effect was observed with a significant effect at 100 mg/kg
- beta-cell number [4]: significantly restored
- islet area [4]: significantly restored
- FBG levels (in words) ([5]; 100 mg/kg of body weight, long term treatment, vs untreated diabetic group): significant reduction in FBG levels
- FBG ([5]; STZ-induced diabetic rats, 100 mg/kg, eight weeks of treatment, mean ± SE, 06 rats, *P<0.05 vs diabetic group): 126 ± 8* mg/dL
- serum insulin levels [6]: marked increase in serum insulin levels
- degenerative changes / islet atrophy (histopathology) ([7]; H&E staining, STZ-induced diabetic rats): markedly attenuated the STZ-induced islet atrophy; also recorded: significantly attenuated
- immunofluorescent staining for insulin / residual beta-cell function ([7]; anti-insulin immunostaining, vs STZ-induced diabetic group): increased immunoreactivity for insulin; also recorded: restored the residual beta-cell function
